# Laboratory results from patent publication US9363996B2, “Compositions and method for blocking ethylene response in field crops using 3-(cy-clopropyl-l-enyl)-propanoic salt” (Yissum Research Development Company of the Hebrew …, priority 2009, dated 2016).
# Legend:
# [1] = tested on: wheat plants; assay: Ethephon-induced flag leaf epinasty of wheat plants after spike heading; format: in vivo, wheat (Triticum turgidum var. 'Gdera'); conditions: Ethephon 750 μL L^−1 spray alone
# Description: (1) Abscission—This is a very sensitive model system for studying the effects of plant hormones. Ethylene induces the process of abscission, while auxin delays it. In the laboratory the experimental system is based on plant organ explants, which include the abscission zone. Abscission is induced by exposure to ethylene and at the termination of the experiment the number of abscised organs, usually either leaf blades or petioles are counted and the fraction of abscission is calculated. In the case of fruit, the decrease in fruit retention force is analyzed. In cotton, when WS-CPD (the ethylene-action antagonist herein disclosed) is tested, the whole plants or explants are pretreated by spraying with the antagonist, dissolved in a phosphate buffer solution (10-20 mM, pH 7.0) including 0.1% commercially available Kinetic™ as surfactant, and left to incubate for a predetermined time, usually between 6 and 24 h. […] At the end of the experiment the percentage of abscission is determined. […] At the end of the experiment a dimethylsulfoxide (DMSO) extract of the plant tissue is prepared, and the chlorophyll content of the extract is determined by spectrophotometric analysis. […] The extent of ethylene-induced epinasty of leaves is determined by measuring the change of the angle between the petiole and the stem shoot or blade. […]
# [2] = tested on: wheat plants; assay: Wheat grain weight at the milky stages after Ethephon treatment; format: in vivo, wheat (Triticum turgidum var. 'Gdera'); conditions: Ethephon 750 μL L^−1, sandy soil
# Description: (§1) (1) Abscission—This is a very sensitive model system for studying the effects of plant hormones. Ethylene induces the process of abscission, while auxin delays it. In the laboratory the experimental system is based on plant organ explants, which include the abscission zone. Abscission is induced by exposure to ethylene and at the termination of the experiment the number of abscised organs, usually either leaf blades or petioles are counted and the fraction of abscission is calculated. In the case of fruit, the decrease in fruit retention force is analyzed. In cotton, when WS-CPD (the ethylene-action antagonist herein disclosed) is tested, the whole plants or explants are pretreated by spraying with the antagonist, dissolved in a phosphate buffer solution (10-20 mM, pH 7.0) including 0.1% commercially available Kinetic™ as surfactant, and left to incubate for a predetermined time, usually between 6 and 24 h. The plants or explants are then further exposed for 24 h to ethylene gas (5 to 20 μL L^−1). The plants or explants are then ventilated and incubated for the required time under controlled conditions. At the end of the experiment the percentage of abscission is determined. (2) Chlorophyll degradation—This is a standard model for studying senescence. Plant material (whole plants, excised leaves or leaf discs) are pretreated. In cotton, tobacco and wheat, when WS-CPD is tested, the whole plants or explants are pretreated by spraying with the antagonist, dissolved in phosphate buffer solution (10-20 mM, pH 7.0) including 0.1% commercially available Kinetic™ surfactant, and left to incubate for a predetermined time, usually between 6 and 241. The plants or explants are then further exposed for 24 h to ethylene gas (1 to 100 μL L^−1), or sprayed with Ethephon™ (wheat; 250 to 750 μL L^−1). The plants or explants are then ventilated and incubated for the required time under controlled conditions. At the end of the experiment a dimethylsulfoxide (DMSO) extract of the plant tissue is prepared, and the chlorophyll content of the extract is determined by spectrophotometric analysis. The chlorophyll content is reported either on a fresh, dry weight basis, or on a surface area basis. (3) Epinasty—This is also one of the classical methods for studying ethylene effects in plants. The extent of ethylene-induced epinasty of leaves is determined by measuring the change of the angle between the petiole and the stem shoot or blade. After exposure of the intact plant to ethylene, the upright grown leaves bend downward. The increase in the angle values (degrees) between petiole and the stem is used as a measure of the effect of the ethylene. When WS-CPD is tested on cotton and wheat plants, the whole plants are pretreated by spraying with the antagonist dissolved in phosphate buffer solution (10-20 mM, pH 7.6) including 0.1% Kinetic™ as surfactant, and left to incubate for a predetermined time, usually between 6 and 24 h. The plants are then further exposed for 24 h to ethylene gas (cotton, 5 to 10 μL L^−1), or sprayed with Ethephon™ (wheat, 250 to 750 μL L^−1). The plants are then ventilated and incubated for the required time under controlled conditions. The epinastic effect is expressed by measuring the degree values of the downward curvature between the blade and petiole (cotton, FIGS. 1-3) or between the blade and the stem (wheat, FIGS. 31 and 32). (4) Wheat Grain yield—This is a common test of the effects of exposure of monocot plants either to environmental stresses such as drought that induce senescence by increasing endogenous ethylene production. Excessive internal or external ethylene will accelerate senescence which will lead to reduced grain yield. In this project the intact plants were grown in the greenhouse up to the spike hading at milky stage I and II. The plants were then sprayed with the dissolved WS-CPD in phosphate buffer solution (10 mM, pH 7.6) including 0.1% Kinetic™ as surfactant. Young Cotton Seedlings […]
# [3] = tested on: wheat plants; assay: Ethephon-induced chlorophyll degradation in wheat leaves, glumes and chaffs; format: in vivo, wheat (Triticum turgidum var. 'Gdera'); conditions: for reduction of chlorophyll content: chaffes; for reduction of chlorophyll content / reduction in chlorophyll content: milky stage I; for decrease of chlorophyll content: Ethephon 250 and 750 μL L^−1 at milky stage I, after 5-6 days; for reduction in chlorophyll content: glumes
# Description: as §1
# [4] = tested on: wheat seedlings; assay: Third leaf growth of young wheat seedlings exposed to ethylene; format: in vivo, wheat (Triticum turgidum var. 'Gdera'); conditions: for inhibition of growth of the third leaf: additional experiment
# [5] = tested on: tobacco seedlings; assay: Ethylene-induced chlorophyll degradation in tobacco seedling leaves; format: in vivo, tobacco (Nicotiana tabacum var. 'Samsun'); conditions: ethylene alone
# Description: as §1, with “ethylene.” for “ethylene. When WS-CPD is tested on cotton and wheat plants, the whole plants are pretreated by spraying with the antagonist dissolved in phosphate buffer solution (10-20 mM, pH 7.6) including 0.1% Kinetic™ as surfactant, and left to incubate for a predetermined time, usually between 6 and 24 h. The plants are then further exposed for 24 h to ethylene gas (cotton, 5 to 10 μL L^−1), or sprayed with Ethephon™ (wheat, 250 to 750 μL L^−1). The plants are then ventilated and incubated for the required time under controlled conditions. The epinastic effect is expressed by measuring the degree values of the downward curvature between the blade and petiole (cotton, FIGS. 1-3) or between the blade and the stem (wheat, FIGS. 31 and 32). (4) Wheat Grain yield—This is a common test of the effects of exposure of monocot plants either to environmental stresses such as drought that induce senescence by increasing endogenous ethylene production. Excessive internal or external ethylene will accelerate senescence which will lead to reduced grain yield. In this project the intact plants were grown in the greenhouse up to the spike hading at milky stage I and II. The plants were then sprayed with the dissolved WS-CPD in phosphate buffer solution (10 mM, pH 7.6) including 0.1% Kinetic™ as surfactant. Young Cotton Seedlings”
# [6] = tested on: young cotton leaf explants; assay: Ethylene-induced petiole abscission of young cotton leaf explants; format: in vivo, cotton (Gossyium hirsutum barbadense L.); conditions: ethylene alone
# Description: (1) Abscission—This is a very sensitive model system for studying the effects of plant hormones. Ethylene induces the process of abscission, while auxin delays it. In the laboratory the experimental system is based on plant organ explants, which include the abscission zone. Abscission is induced by exposure to ethylene and at the termination of the experiment the number of abscised organs, usually either leaf blades or petioles are counted and the fraction of abscission is calculated. In the case of fruit, the decrease in fruit retention force is analyzed. In cotton, when WS-CPD (the ethylene-action antagonist herein disclosed) is tested, the whole plants or explants are pretreated by spraying with the antagonist, dissolved in a phosphate buffer solution (10-20 mM, pH 7.0) including 0.1% commercially available Kinetic™ as surfactant, and left to incubate for a predetermined time, usually between 6 and 24 h. The plants or explants are then further exposed for 24 h to ethylene gas (5 to 20 μL L^−1). The plants or explants are then ventilated and incubated for the required time under controlled conditions. At the end of the experiment the percentage of abscission is determined. (2) Chlorophyll degradation—This is a standard model for studying senescence. Plant material (whole plants, excised leaves or leaf discs) are pretreated. In cotton, tobacco and wheat, when WS-CPD is tested, the whole plants or explants are pretreated by spraying with the antagonist, dissolved in phosphate buffer solution (10-20 mM, pH 7.0) including 0.1% commercially available Kinetic™ surfactant, and left to incubate for a predetermined time, usually between 6 and 241. […] At the end of the experiment a dimethylsulfoxide (DMSO) extract of the plant tissue is prepared, and the chlorophyll content of the extract is determined by spectrophotometric analysis. […] The extent of ethylene-induced epinasty of leaves is determined by measuring the change of the angle between the petiole and the stem shoot or blade. […]
SMILES,flag leaf epinasty [1],reduction of grain weight ([2]; stage I),reduction of grain weight ([2]; stage II),reduction of chlorophyll content ([3]; Ethephon 250 μL L^−1),reduction of chlorophyll content ([3]; Ethephon 750 μL L^−1),decrease of chlorophyll content ([3]; flag leaf),"reduction of the content of chlorophyll ([3]; flag leaf, Ethephon 750 μL L^−1, milky stage II)","chlorophyll lower compared with the untreated control spikes ([3]; glumes and chaffs, Ethephon 750 μL L^−1, milky stage II)",reduction in chlorophyll content ([3]; Ethephon 250 μL L^−1),reduction in chlorophyll content ([3]; Ethephon 750 μL L^−1),decrease of chlorophyll content ([3]; leaf II),"reduction of the content of chlorophyll ([3]; leaf II, Ethephon 750 μL L^−1, milky stage II)",inhibition of growth of the third leaf ([4]; ethylene 1.6 μL L^−1),inhibition of growth of the third leaf ([4]; ethylene 20 μL L^−1),"length of the third leaf longer than air-control leaf ([4]; ethylene 1 μL L^−1, continuous exposure)",inhibition of growth of the third leaf compared to air control ([4]; ethylene 10 μL L^−1),inhibition of growth of the third leaf compared to air control ([4]; ethylene 100 μL L^−1),reduction of chlorophyll content ([5]; mature (lower) leaves),decrease in chlorophyll content as compared with air-treated leaves ([5]; young (upper) leaves),rate of petiole abscission [6]
"O=P(O)(O)CCCl [Ethephon, reference compound]",strong leaf epinasty,4%,18%,33%,28%,16-21%,33%,12%,10%,40%,21-22%,47%,,,,,,,,
C=C [ethylene],,,,,,,,,,,,,20%,35%,50%,50%,30%,72%,17%,accelerated
